Drawing on PubChem BioAssay (NCI), this text covers GI50 and TGI for 11 molecules.

Holding throughout (assay): inhibition of tumour cell growth, NCI panel, 48 h
Assay [1] concerns COLO 205 colon.
In assay [2] the test system is EKVX NSCLC.
Assay [3] has as its system HCT-116 colon.
For assay [4], the system named is HOP-62 NSCLC.
The test system of assay [5] is MOLT-4 leukemia.
Assay [6] deals with OVCAR-5 ovarian.
The test system of assay [7] is RPMI-8226 leukemia.
In assay [8] the test system is SK-OV-3 ovarian.
In assay [9] the test system is SNB-75 CNS.
Assay [10] concerns SW-620 colon.

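Method: 48-hour compound exposure of cells in 96-well plates, five concentrations, linear interpolation of endpoints. Here, GI50 denotes the concentration required for 50% inhibition of growth. TGI is the concentration that stops growth completely.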

Take `COc1ccc(/C=C/C(=O)c2ccc(Nc3nc(Nc4ccc(F)cc4)nc(Nc4ccc(F)cc4)n3)cc2)cc1`: the GI50 in [1] is 9.57 µM; in assay [2] it was 23.9 µM; in assay [3] it was 4.82 µM; in [4] it was 13.1 µM; in [5] it was 3.11 µM; in assay [6], 40.2 µM. Besides, the GI50 is 6.66 µM in [7], 17.1 µM in assay [8], 30.6 µM in assay [9] and 19 µM in [10]. Also, the TGI in [1] was 29.6 µM; in assay [2], greater than 100 µM; in assay [3], 18.3 µM; in [4], 30 µM; in assay [5], 21.9 µM; in [6] it was greater than 100 µM. Moreover, the TGI is greater than 100 µM in assay [7], 88.4 µM in assay [8], greater than 100 µM in assay [9] and 82.1 µM in assay [10].
Take `NC1=Nc2ccccc2Sc2ccccc21`: the TGI in assay [1], in assay [2], in assay [3], in assay [4], in assay [5] and in assay [6] was greater than 100 µM in each case. The TGI in assay [7] is greater than 100 µM; in assay [8] it was greater than 100 µM; in assay [9], 53.2 µM; in assay [10], greater than 100 µM.
As for `O=C(N/C(=C\c1ccc(F)cc1)c1nc2ccccc2[nH]1)c1ccccc1`, the TGI in assay [1], in assay [2], in assay [3], in assay [5], in assay [6] and in assay [7] was greater than 100 µM each time. Also, the TGI in [8], in assay [9] and in assay [10] was greater than 100 µM throughout.
Turning to `CN1CCN(c2nc3cc(F)ccc3n3cccc23)CC1`, the TGI in assay [1] is greater than 100 µM; in [2], greater than 100 µM; in [3], greater than 100 µM; in assay [4], greater than 100 µM; in assay [5] it was 81.8 µM; in [6], greater than 100 µM. The TGI in assay [7] was greater than 100 µM; in assay [8], greater than 100 µM; in assay [9], 90.7 µM; in assay [10], greater than 100 µM.
Regarding `CC1=C(SCCC(=O)OC(C[Se]C2=C(C)C(=O)c3ccccc3C2=O)C(=O)NC(C)(C)C)C(=O)c2ccccc2C1=O` (centres undefined), the GI50 in assay [1] was 1.66 µM; in [2] it was 1.58 µM; in assay [3], 0.384 µM; in [4], 0.32 µM; in assay [5] it was 0.274 µM; in assay [6], 1.69 µM. The GI50 in [7] is 0.507 µM; in assay [8], 1.43 µM; in assay [9] it was 1.45 µM; in assay [10], 1.36 µM. For the same molecule, the TGI in assay [1] was found to be 3.14 µM; in assay [2], 4.48 µM; in [3], 1.44 µM; in assay [4] it was 1.68 µM; in [5] it was 1.31 µM; in assay [6], 3.08 µM. The TGI in assay [7] came out at 2.71 µM; in assay [8] it was 2.74 µM; in assay [9] it was 2.76 µM; in [10], 2.87 µM.
Take `CN(C)Cc1cc(C(C)(C)C)cc(CN(C)C)c1O`: the TGI in [1], in assay [2], in assay [3], in assay [4], in assay [5] and in assay [6] was greater than 100 µM each time. Further, the TGI in assay [7], in assay [8], in assay [9] and in assay [10] was greater than 100 µM in each case.
With `Cc1nc2sc(C(=O)Nc3ccccc3)c(N)c2cc1C(=O)c1ccccc1`, the GI50 is 1.86 µM in [1]; 2.74 µM in [2]; 1.59 µM in assay [3]; 3.33 µM in assay [4]; 2 µM in [5]; 2.9 µM in assay [6]. The GI50 was 1.86 µM in assay [7], 2.35 µM in assay [8], 1.87 µM in [9] and 2.29 µM in assay [10]. The TGI in assay [1] is 7.55 µM; in assay [2] it was greater than 50 µM; in assay [3], greater than 50 µM; in assay [4], greater than 50 µM; in [5] it was greater than 50 µM; in assay [6] it was greater than 50 µM. The TGI in assay [7], in assay [8], in assay [9] and in assay [10] was greater than 50 µM each time.
Regarding `CCCC(=O)OC(OC(=O)CCC)c1ccc([N+](=O)[O-])o1`, the TGI was 54.9 µM in assay [1]; 99.6 µM in assay [2]; 32.8 µM in [3]; greater than 100 µM in assay [4]; 98.4 µM in [5]; 39.6 µM in assay [6]. For the same molecule, the TGI in assay [7] was 49.7 µM; in assay [8] it was greater than 100 µM; in assay [9], greater than 100 µM; in [10], 41.2 µM.
Take `C=CCCC(=O)CC(=O)OCc1ccccc1`: the TGI in assay [1], in assay [2], in assay [3], in assay [4], in [5] and in [6] was greater than 100 µM each time. Moreover, the TGI in assay [7], in assay [8], in assay [9] and in assay [10] was greater than 100 µM in each case.
For the molecule `CCOc1ccccc1N=Cc1c2ccccc2cc2ccccc12`, the TGI in assay [1] was greater than 88.7 µM; in assay [2], 52.3 µM; in [3] it was 41.5 µM; in assay [4], greater than 84.3 µM; in assay [5] it was 53.3 µM; in [6], 68.9 µM. The TGI was 56.5 µM in assay [7], 68.6 µM in [8], 47.7 µM in assay [9] and greater than 100 µM in [10].
With `CC1(C2CCC3(C)C(C2)C3Sc2ccccc2)OCCO1` (centres undefined), the TGI amounted to 35.8 µM in [1]; 66.2 µM in [2]; 34 µM in assay [3]; 45.8 µM in assay [4]; 38.4 µM in assay [5]; 49.9 µM in [6]. Also, the TGI in assay [7] was 32.7 µM; in [8], 88.6 µM; in [9] it was greater than 100 µM; in assay [10], 50.1 µM.
